# Source: PMC7932537, “Quantitative profiling of protease specificity” (PLoS Computational Biology, 2021)
# Test system: MMP-2
# Experiment: Substrate phage display with NGS: relative probability (RP) of P3-P1' tetramer clusters
# Format: biochemical, human
# Settings: MMP2 - no binning; average relative probability (RP) of the P3-P1' tetramer; redundant tetramers have been averaged out
row,Substance,avg_RP
1,VNRI,0
2,ALWL,7.2418
3,VGVL,7.4169
4,LFHL,2.7376
5,SQHL,0.2367
6,GDRL,0
7,VLPL,20.3086
8,AWAL,14.3616
9,GLHL,0.1267
10,ASRL,6.8948
11,PLRI,15.7039
12,SARL,4.5839
13,MALL,16.9256
14,GMAL,1.3132
15,PAYL,33.0829
16,GRPL,5.2852
17,PGSM,25.6264
18,PYLL,11.898
19,VAFL,20.6554

row,Substance,avg_RP
1,FQWL,13.3419
2,INFL,7.787
3,THHL,0.3701
4,ILHL,15.3505
5,SASL,17.7881
6,AKPL,20.8275
7,VFRL,1.3631
8,YLNY,1.6791
9,ALPM,15.3537
10,GHRL,0.0505
11,ALNM,13.7479
12,YRAL,8.2547
13,VWKL,0.2836
14,AQHL,16.6778
15,GQGL,0.1555
16,HMHM,0
17,ALDM,0.2655
18,VRHI,19.1429
19,AKML,2.8249

# Same assay, conditions: MMP2 - no binning; average relative probability of the P3-P1' tetramer; redundant tetramers have been averaged out
row,Substance,avg_RP
1,ARAW,17.4628
2,GLEL,0
3,YYGL,0.142
4,LWYL,0.6796
5,TWAL,0.4366
6,AVAL,27.4369
7,IYAL,6.9669
8,LQNL,27.5155
9,ISYM,22.3091
10,VRML,15.9125
11,VMLM,0.5571
12,WAHL,7.453
13,WSGM,18.3143
14,LYHL,4.5289
15,WGNM,3.7232
16,MLSL,2.2282
17,VWHV,0
18,GQHL,1.1642
19,LNSL,18.3633
20,SGPL,2.1571
21,YFPL,0.1432
22,PVGL,35.2016

row,Substance,avg_RP
1,WRHL,0.4087
2,PQSL,33.5105
3,SGFL,6.5712
4,VDYL,1.426
5,QQNL,4.2466
6,FGNL,26.0275
7,LAHV,11.7405
8,PSGM,32.7604
9,AYNL,20.8713
10,PLAL,34.4921
11,YRSL,1.5061
12,PMRL,20.4124
13,LNYL,12.3459
14,PHMM,14.968
15,TLHL,2.4714
16,PSNM,32.3748
17,ARSM,12.2991
18,ISFM,23.3965
19,PFHL,23.4724
20,YSNL,25.2832
21,LWSL,8.3838
22,PLHL,34.1843

row,Substance,avg_RP
1,VGML,28.5913
2,FLHL,0.8093
3,WYGM,0.0531
4,LQKL,13.1993
5,LSHL,29.8814
6,YFSM,0.0661
7,AQSL,18.365
8,LKHL,11.1441
9,IAYL,27.9862
10,IAHL,32.9345
11,PFFL,12.8224
12,IWKL,0.0593
13,PMLL,14.7282
14,QMSL,0.2763
15,SGML,1.3118
16,MFHL,0.052
17,VMRM,0.0611
18,VLHL,19.5348
19,MMSL,6.1978
20,SAWL,18.9346
21,VWAL,12.7502
22,FWHL,0

row,Substance,avg_RP
1,VFAL,11.8827
2,LSRL,14.3329
3,TRNL,12.3403
4,VLWL,11.1539
5,PLMM,20.5706
6,VWWQ,0.2844
7,VLAL,13.5229
8,FEHL,1.2103
9,GMNM,0
10,AHLL,1.4368
11,SMNL,2.1645
12,VFSM,2.2653
13,IQSL,25.2682
14,FRGL,7.4752
15,PFYL,17.7778
16,VRNW,17.7682
17,PRYW,20.9965
18,SGRL,0.7262
19,WQNL,6.2916
20,LLNM,13.7728
21,YFNL,0

# Same assay, conditions: MMP2 - no binning; average relative probability of the tetramer; redundant tetramers averaged out
row,Substance,avg_RP
1,VNHL,12.8499
2,VYLL,1.2276
3,PRYM,28.0367
4,MAAL,32.6562
5,GSHL,4.2785
6,PSRM,27.1397
7,PRQV,4.0665
8,PWSL,28.5684
9,PKLI,0.9254
10,PWFM,3.6842
11,PRSY,30.3745
12,VRWS,8.0593
13,PNPL,23.6266
14,GYHL,0.0815
15,MGHL,26.7019
16,SLAL,6.0193
17,WQGL,12.939
18,VFWY,6.3003
19,PRSM,32.6673
20,PMHL,30.095
21,SRGL,6.1644
22,VHHL,14.1228
23,LGNL,33.3542

row,Substance,avg_RP
1,IALL,16.3586
2,YQGL,4.3322
3,PVPM,31.3308
4,PWAL,31.9211
5,WRAY,17.4833
6,ARLL,1.104
7,WFAL,0
8,PYKL,15.5683
9,VFSL,9.6313
10,HRSL,7.8508
11,PSWS,13.1501
12,PAPM,30.2085
13,IWSL,5.404
14,MSYL,18.2293
15,VWHI,1.9312
16,GRAL,7.9443
17,AHGI,8.8809
18,PVHL,32.2352
19,MAWL,31.5866
20,PMFL,18.5721
21,VLNL,18.9065
22,FAHL,19.6504
23,WSSL,16.6561

row,Substance,avg_RP
1,VWPL,5.2943
2,PHYL,24.5149
3,PAPW,31.7353
4,HAWM,17.1047
5,GAHL,8.4636
6,PHHL,27.4742
7,IEYL,5.366
8,PKWL,29.287
9,PYHL,27.2418
10,VYWL,16.4375
11,ISWM,28.3587
12,HAHL,20.0775
13,VLSL,10.8506
14,VMGI,12.4242
15,PESL,26.0767
16,PRLY,15.7594
17,PYNL,30.8263
18,ALPL,22.1772
19,PKGM,31.666
20,PRNI,31.9621
21,WRAL,22.4074
22,SWGL,0.1389
23,HLAL,11.3603

row,Substance,avg_RP
1,LRML,9.0498
2,YLHL,0.4077
3,PRSW,32.796
4,TFHL,0.1298
5,PLMY,17.2027
6,PRGM,34.3819
7,PSWV,21.5104
8,SNWL,9.68
9,YAHL,18.7061
10,PRNT,2.5391
11,MGRL,18.6873
12,PSAL [P3-P1' tetramer cluster],36.1873
13,PKWI,22.5059
14,PYHI,15.3574
15,PMDY,10.9087
16,PSLY,18.1013
17,PVHY,23.3589
18,PWNY,16.9576
19,PLNS,18.9358
20,MSHL,24.6165
21,LLAM,10.8556
22,VYGL,17.3788
23,PAQM,28.6142

row,Substance,avg_RP
1,ARNL,24.6947
2,PLKV,0.2165
3,AVAI,20.993
4,ISAL,31.8319
5,PLQI,21.9897
6,AYSL,18.7071
7,PLAF,31.4142
8,ANAL,20.3526
9,VGAL,32.8382
10,SGHL,1.458
11,PIHM,18.8886
12,VVWY,9.9375
13,PLSY,31.2477
14,PVAM,31.7171
15,PLLL,15.2696
16,VAKM,17.3627
17,VRGV,2.6159
18,VRAV,10.114
19,PLML,25.0435
20,WRNL,6.7583
21,PEPL,26.8179
22,QLSL,0.4979

# Same assay, conditions: MMP2; RP of matching P3-P1' tetramer; common set of MMP2-9 selectome; RP above KL threshold
row,Substance,relative probability (RP) (acc.to MMP2)
1,AGSL,14.97

# Same assay, conditions: P3-P1' tetramer matching the MS detected MMP2 cleavage sequence; RP_above_4.5
row,Substance,relative probability (RP) of matching tetramer
1,AGSL,14.97

# Same assay, conditions: tetramer annotation of MMP-2 cleavage sites in physiologic substrates from MEROPS
row,Substance,relative probability (RP)
1,RIIG,0.08

# Same assay, conditions: tetramer clusters unique to the MMP-2 selectome, MMP-2 RP
row,Substance,relative_probability
1,LGNM [P3-P1' tetramer cluster],29.28
2,LANW [P3-P1' tetramer cluster],29.93
3,MGWI [P3-P1' tetramer cluster],29.72
4,MSNL [P3-P1' tetramer cluster],30.28
5,MGAL [P3-P1' tetramer cluster],31.51
6,MGNL [P3-P1' tetramer cluster],31.00
7,LGAM [P3-P1' tetramer cluster],29.74
8,MSWM [P3-P1' tetramer cluster],29.68

# Same assay, conditions: tetramer probability in MMP2 set / naive library; 200 nM protease, 2 h, 37°C
row,Substance,relative probability (RP)
1,PSAL [P3-P1' tetramer cluster],36.1873
2,PSNL [P3-P1' tetramer cluster],36.5166

# Same assay, conditions: tetramer projected onto MMP-2 cleavage sites determined by Prudova et al. (2010)
row,Substance,relative probability (RP)
1,PSAL [P3-P1' tetramer cluster],36.19
